Key:
[1] = tested on: A549 (lung adenocarcinoma); experiment: MTT antiproliferative assay in A549 cells; assay type: cell-based, human; conditions: Homo sapiens, 72 hrs treatment, MTT
Method: (§1) Cell culture. A549 and IMR-90 cells were purchased from the American Type Culture Collection (ATCC), while HOP-62 and HOP-92 were obtained from the cell line repository at the National Cancer Institute. Cells were grown in the appropriate medium supplemented with 10% fetal bovine serum (FBS, Life Technologies, Grand Island, N.Y.), 62.5 μg/mL penicillin and 100 μg/mL streptomycin (Life Technologies) in a humidified incubator at 37° C. with 5% CO2. The media were as follows: Dulbecco's modified Eagle's medium (DMEM, Life Technologies) for A549 cells; RPMI 1640 (Life Technologies) for HOP-62 and HOP-92 cells; Eagle's minimal essential medium (EMEM) with Eagle's balanced salt solution (EBSS), 2 mM L-glutamine, 1500 mg/L sodium bicarbonate (Lonza, Walkersville, Md.), supplemented with 1 mM sodium pyruvate (Life Technologies) and non-essential amino acids (Life Technologies) for IMR-90 cells. Cell lines were verified with a 9-marker short tandem repeat profile and inter-species contamination test (Idexx BioResearch), although A549 cells utilized in proliferation assays were missing the Y allele at the amelogenin marker.
(§2) Cell proliferation & viability assays. Anti-proliferative activity of XB05 and other compounds was evaluated using a previously published 3-(4,5-dimethylthiazol-2-yl)-2,5-diphenyltetrazolium bromide (MTT) assay protocol (MORGAN “Tetrazolium (MTT) assay for cellular viability and activity” Methods Mol Biol. (1998) Vol. 79, pp. 179-83, which is herein incorporated by reference in its entirety, BATES et al. “Antiproliferative activity of G-rich oligonucleotides correlates with protein binding” J Biol Chem. (1999) Vol. 274, No. 37, pp. 26369-26377, which is herein incorporated by reference in its entirety, SALIPUR et al. “A novel small molecule that induces oxidative stress and selectively kills malignant cells” Free Radic Biol Med. (2014) Vol. 68, pp. 110-121, which is herein incorporated by reference in its entirety). Cells were seeded in quadruplicate wells in 96-well plates and allowed to adhere overnight. […] After 72 hrs of treatment with XB05 or other compounds, MTT (Sigma, St. Louis, Mo.) was added for 4 hrs prior to cell lysis. Each assay was performed in at least triplicate.
(§3) XB05 and related compounds were assessed for anti-proliferative activity in malignant (A549) and non-malignant (IMR-90) cells (Table A2).

[2] = tested on: IMR-90 (non-malignant lung fibroblasts); experiment: MTT antiproliferative assay in IMR-90 cells; assay type: cell-based; conditions: Homo sapiens, 72 hrs treatment, read-out: MTT Antiproliferative Activity - IC50 (μM) IMR0 (non-malignant lung fibroblasts)
Method: as §1, §2, §3

[3] = DTNB assay for reactivity with free thiols, reduced glutathione; assay type: physicochemical; conditions: 0.25 mM reduced glutathione, 30 min at 37° C., pH 8.0
Method: (§4) Dithiobis-2-nitrobenzioc acid (DTNB) assay for free sulfhydryls. Similar to previously described in SALIPUR et al. “A novel small molecule that induces oxidative stress and selectively kills malignant cells” Free Radic Biol Med. (2014) Vol. 68, pp. 110-121, which is herein incorporated by reference in its entirety, reactivity with free sulfhydryls was evaluated using DTNB (Sigma). Briefly, a 4× solution of DTNB (6 mM DTNB, 50 mM sodium acetate in 100 mM Tris-HCl, pH 8.0) and solutions of 0.5 mM cysteine (Sigma) and reduced glutathione (GSH, Sigma) in 100 mM Tris-HCl, pH 8.0 were freshly prepared. The 200 mM stock solutions of XB05, other compounds, diethylmaleate (Sigma), and maleimide (Sigma) were prepared in 100% DMSO, and subsequently diluted to 2× working solutions in 100 mM Tris-HCl, pH 8.0. Thiol compounds (final concentration 0.25 mM) and thiol-reactive compounds (final concentrations 0.04-5 mM) or vehicle were added in duplicate to a 96-well plate and incubated for 30 min at 37° C. DTNB solution was then added to each well (final concentration 400 μM), and incubated at room temperature for an additional 5 min. Absorbance at 412 nm was determined by a Biotek HT Synergy plate reader (Winooski, Vt.).

[4] = DTNB assay for reactivity with free thiols, cysteine; assay type: physicochemical; conditions: 0.25 mM cysteine, 30 min at 37° C., pH 8.0
Method: as §4

Row | Compound | IC50 [1] | IC50 [2] | DTNB Reactivity with Thiols - DTNB assay with Glutathione [3] | DTNB Reactivity with Thiols - DTNB assay with Cysteine [4]
1 | CCCCCC(O)C#CCBr (stereo not shown) [MNR-3-92] | 7.1 µM | 8.7 µM | Reactive | Reactive
2 | CC(C)(C)OC(=O)NCCCCCCCCCC(O)C#CC(F)(F)Br (stereo not shown) [MNR-1-186] | > 10 µM | > 10 µM |  | 
3 | OC(C#CC(F)(F)Br)c1ccccc1 (stereo not shown) [MNR-3-93] | > 10 µM | > 10 µM |  | 
4 | CCCCCC(O)C#CC(F)(F)F (stereo not shown) [JAB-4-156] | > 10 µM | > 10 µM | ND (DTNB ND - not detected at concentrations up to 2.5 mM) | ND (DTNB ND - not detected at concentrations up to 2.5 mM)
5 | CCCCCC(O)C#CC(F)F (stereo not shown) [MNR-3-91] | > 10 µM | > 10 µM |  | 
6 | CCCCCC(Cl)C#CC(F)(F)Br (stereo not shown) [MNR-1-102] | > 10 µM | > 10 µM | Reactive | ND (DTNB ND - not detected at concentrations up to 2.5 mM)
7 | CCCC(C)C(O)C#CC(F)(F)Br (stereo not shown) [MNR-1-117] | 1.9 µM | 7.9 µM | ND (DTNB ND - not detected at concentrations up to 2.5 mM) | ND (DTNB ND - not detected at concentrations up to 2.5 mM)
8 | CCCCCC(C#CC(F)(F)Br)OC (stereo not shown) [JAB-4-155] | 3.5 µM | > 10 µM | ND (DTNB ND - not detected at concentrations up to 2.5 mM) | ND (DTNB ND - not detected at concentrations up to 2.5 mM)
9 | CCCCCC(C)(O)C#CC(F)(F)Br (stereo not shown) [MNR-1-118] | 8.2 µM | > 10 µM | ND (DTNB ND - not detected at concentrations up to 2.5 mM) | ND (DTNB ND - not detected at concentrations up to 2.5 mM)
10 | OC(C#CC(F)(F)Br)C1CCCCC1 (stereo not shown) [MNR-3-90] | 0.9 µM | 3.1 µM |  | 
11 | CC(C)C(O)C#CC(F)(F)Br (stereo not shown) [MNR-3-86] | > 10 µM | > 10 µM |  | 
12 | C#CC(O)CCCCC (stereo not shown) [Compound 1-Octyn-3-ol, 1-Octyn-3-ol] | > 10 µM | > 10 µM | ND (DTNB ND - not detected at concentrations up to 2.5 mM) | Reactive
13 | CCCCCCC#CC(F)(F)Br [JAB-4-158] | 2.1 µM | > 10 µM | ND (DTNB ND - not detected at concentrations up to 2.5 mM) | ND (DTNB ND - not detected at concentrations up to 2.5 mM)
14 | O=C(CCCCC1SCC2NC(=O)NC21)NCCOCCOCCOCCOCCC(=O)NCCCCCCCCCC(O)C#CC(F)(F)Br (stereo not shown) [MNR-2-6] | > 10 µM | > 10 µM |  | 
15 | CCCCCC(C#CC(F)(F)Br)OC1CCCCO1 (stereo not shown) [MNR-3-27] | 1.9 µM | 3.7 µM |  | 
16 | CCCC(O)C#CC(F)(F)Br (stereo not shown) [MNR-1-122] | 0.8 µM | 1.1 µM | ND (DTNB ND - not detected at concentrations up to 2.5 mM) | ND (DTNB ND - not detected at concentrations up to 2.5 mM)

Row | Compound | IC50 [1] | IC50 [2] | DTNB Reactivity with Thiols - DTNB assay with Glutathione [3] | DTNB Reactivity with Thiols - DTNB assay with Cysteine [4]
17 | CCCCCC(=O)/C=C(\NCCC)C(F)(F)Br [JAB-4-165] | > 10 µM | > 10 µM | ND (DTNB ND - not detected at concentrations up to 2.5 mM) | ND (DTNB ND - not detected at concentrations up to 2.5 mM)
18 | CCCCCC(O)C#CC(F)(F)Oc1ccc(F)cc1 (stereo not shown) [MNR-1-110] | > 10 µM | > 10 µM | ND (DTNB ND - not detected at concentrations up to 2.5 mM) | ND (DTNB ND - not detected at concentrations up to 2.5 mM)
19 | CC(C)(C)C(O)C#CC(F)(F)Br (stereo not shown) [MNR-3-85] | > 10 µM | > 10 µM |  | 
20 | CCCCCCCCCCCC(O)C#CC(F)(F)Br (stereo not shown) [MNR-3-89] | 1.1 µM | 2.7 µM |  | 
21 | OC(C#CC(F)(F)Br)CCCCc1ccccc1 (stereo not shown) [MNR-1-129] | > 10 µM | > 10 µM |  | 
22 | CCCCC[C@H](O)C#CC(F)(F)Br [MNR-3-41] | 4.8 µM | > 10 µM |  | 
23 | CCCCCCCC(O)C#CC(F)(F)Br (stereo not shown) [MNR-3-94] | 0.9 µM | 2.7 µM |  | 
24 | CCCCC[C@@H](O)C#CC(F)(F)Br [MNR-3-38] | 0.4 µM | 1.5 µM | ND (DTNB ND - not detected at concentrations up to 2.5 mM) | ND (DTNB ND - not detected at concentrations up to 2.5 mM)
25 | OC(C#CC(F)(F)Br)CCc1ccccc1 (stereo not shown) [MNR-3-82] | 1.2 µM | 2.8 µM |  | 
26 | CCCCCC(O)C#CC(F)(F)SCc1ccccc1 (stereo not shown) [MNR-1-111] | > 10 µM | > 10 µM | ND (DTNB ND - not detected at concentrations up to 2.5 mM) | ND (DTNB ND - not detected at concentrations up to 2.5 mM)
27 | CCC#CCCCCCCCC(O)C#CC(F)(F)Br (stereo not shown) [MNR-1-147] | 1.1 µM | 4 µM |  | 
28 | CCCCCC(=O)C#CC(F)(F)Br [JAB-4-163] | > 10 µM | > 10 µM | ND (DTNB ND - not detected at concentrations up to 2.5 mM) | ND (DTNB ND - not detected at concentrations up to 2.5 mM)
29 | CC/C=C\CCC(O)C#CC(F)(F)Br (stereo not shown) [JAB-4-169] | 0.4 µM | 3.8 µM | ND (DTNB ND - not detected at concentrations up to 2.5 mM) | ND (DTNB ND - not detected at concentrations up to 2.5 mM)
30 | CCCCCCCCCC(O)C#CC(F)(F)Br (stereo not shown) [MNR-3-69] | 1 µM | 2.8 µM |  | 
31 | CCCCCC(C#CC(F)(F)Br)OC(C)=O (stereo not shown) [MNR-3-43] | 0.9 µM | 5.4 µM | ND (DTNB ND - not detected at concentrations up to 2.5 mM) | ND (DTNB ND - not detected at concentrations up to 2.5 mM)

Reference: patent publication US11679098B2, “Methods for treating diseases” (UNIVERSITY OF LOUISVILLE RESEARCH FOUNDATION, INC., priority 2018, dated 2023)
